Assay results reported in paper PMC8119466, “A screen of FDA-approved drugs identifies inhibitors of protein tyrosine phosphatase 4A3 (PTP4A3 or PRL-3)” (Scientific Reports, 2021).
Structures can show the parent of a compound that is named as a salt. Where two headings read alike, the source gives them in different places.

Key:
Format in all cases: biochemical
recombinant PRL-1 = target: T1, recombinant PRL-1 (Homo sapiens, UniProt Q93096); test: In vitro phosphatase assay (DiFMUP hydrolysis), PRL-1; further: test concentration or dose not given here
T1 construct: 6xHis (N, cleaved yes); made in house; host or cells: E. coli One Shot BL21 Star
T1 sequence (Q93096 1-173): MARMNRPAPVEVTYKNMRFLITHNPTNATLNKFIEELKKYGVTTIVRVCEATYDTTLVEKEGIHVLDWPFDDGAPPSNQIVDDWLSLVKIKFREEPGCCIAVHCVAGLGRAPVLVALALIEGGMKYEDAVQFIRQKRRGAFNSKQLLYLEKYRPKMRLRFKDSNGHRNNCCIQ

recombinant PRL-2 = target: T2, recombinant PRL-2 (Homo sapiens, UniProt Q12974); test: In vitro phosphatase assay (DiFMUP hydrolysis), PRL-2;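 further: PRL-2 activity read as DiFMUP hydrolysis after 20 min at room temperature with drug, enzyme first pre-reduced at 4 °C for 20 min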
T2 construct: 6xHis (N, cleaved yes); made in house; host or cells: E. coli One Shot BL21 Star
T2 sequence (Q12974 1-167): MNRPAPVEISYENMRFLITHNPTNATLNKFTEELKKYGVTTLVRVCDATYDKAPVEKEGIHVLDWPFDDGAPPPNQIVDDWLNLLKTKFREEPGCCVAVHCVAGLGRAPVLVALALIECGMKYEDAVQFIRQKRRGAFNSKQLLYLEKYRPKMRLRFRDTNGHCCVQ

recombinant PRL-3 = target: T3, recombinant PRL-3 (Homo sapiens, UniProt O75365); test: In vitro phosphatase assay (DiFMUP hydrolysis), PRL-3; further: test concentration or dose not given here
T3 construct: 6xHis (N, cleaved yes); made in house; host or cells: E. coli One Shot BL21 Star
T3 sequence (O75365 whole entry): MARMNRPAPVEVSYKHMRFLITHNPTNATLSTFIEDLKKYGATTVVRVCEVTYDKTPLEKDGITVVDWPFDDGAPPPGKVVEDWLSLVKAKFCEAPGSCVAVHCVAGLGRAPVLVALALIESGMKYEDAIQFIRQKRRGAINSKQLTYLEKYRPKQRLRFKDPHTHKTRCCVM

[1] = FDA-approved drug screen, compared to DMSO
[2] = FDA-approved drug screen, activity compared to DMSO

SMILES | % Phosphatase Activity (compared to DMSO) PRL-1 (recombinant PRL-1; [1]) [%] | % Phosphatase Activity (compared to DMSO) PRL-2 (recombinant PRL-2; [1]) [%] | % Phosphatase Activity (compared to DMSO) PRL-3 (recombinant PRL-3; [1]) [%] | also measured
C=CCc1cc(OC)c(O)c(C(=O)NCCO)c1 [Alibendol] | 90 | 109 | 81 | 
CC(O)(P(=O)(O)O)P(=O)(O)O [Etidronate] | 102 | 100 | 91 | 
CN(C)c1ccc(C(=C2C=CC(=[N+](C)C)C=C2)c2ccc(N(C)C)cc2)cc1 [Crystal Violet] | 79 | 86 | 85 | 
O=C(N/N=C/c1ccc([N+](=O)[O-])o1)c1ccc(O)cc1 [Nifuroxazide] | 68 | 62 | 57 | 
Oc1c(I)cc(Cl)c2cccnc12 [5-Chloro-8-hydroxy-7-iodoquinoline] | 96 | 90 | 71 | 
Nc1nc(NC2CC2)c2ncn([C@H]3C=C[C@@H](CO)C3)c2n1 [Abacavir sulfate] | 88 | 85 | 111 | 
C[C@@H]1C/C=C/C=C/C=C/C=C/[C@H](O[C@@H]2O[C@H](C)[C@@H](O)[C@H](N)[C@@H]2O)C[C@@H]2O[C@](O)(C[C@@H](O)C[C@H]3O[C@@H]3/C=C/C(=O)O1)C[C@H](O)[C@H]2C(=O)O [Natamycin] | 96 | 82 | 78 | 
CC(=O)N[C@H]1[C@H]([C@H](O)[C@H](O)CO)OC(C(=O)O)=C[C@@H]1N=C(N)N [Zanamivir] |  |  |  | % Phosphatase Activity (compared to DMSO) PRL-1 (recombinant PRL-1; [2]): 90%; % Phosphatase Activity (compared to DMSO) PRL-2 (recombinant PRL-2; [2]): 98%; % Phosphatase Activity (compared to DMSO) PRL-3 (recombinant PRL-3; [2]): 115%
CC(=O)[C@H]1CC[C@H]2[C@@H]3C=CC4=CC(=O)CC[C@@]4(C)[C@@H]3CC[C@]12C [Dydrogesterone] | 91 | 98 | 67 | 
Cc1c(O)cccc1C(=O)N[C@@H](CSc1ccccc1)[C@H](O)CN1C[C@H]2CCCC[C@H]2C[C@H]1C(=O)NC(C)(C)C [Nelfinavir Mesylate] | 102 | 91 | 79 | 
Clc1ccc2c(c1)C(N1CCNCC1)=Nc1ccccc1O2 [Amoxapine] | 109 | 118 | 88 | 
Cc1cnc(NC(=O)C2=C(O)c3ccccc3S(=O)(=O)N2C)s1 [Meloxicam] | 74 | 75 | 83 | 
C[C@@H]1CCN(C(=O)CC#N)C[C@@H]1N(C)c1ncnc2[nH]ccc12.O=C(O)CC(O)(CC(=O)O)C(=O)O [Tofacitinib (CP-690550) Citrate] |  |  |  | % Phosphatase Activity (compared to DMSO) PRL-1 (recombinant PRL-1; [2]): 109%; % Phosphatase Activity (compared to DMSO) PRL-2 (recombinant PRL-2; [2]): 91%; % Phosphatase Activity (compared to DMSO) PRL-3 (recombinant PRL-3; [2]): 104%
Cc1cc(C)c2c(c1)[C@@H](N(Cc1cc(C(F)(F)F)cc(C(F)(F)F)c1)c1nnn(C)n1)CCCN2C[C@H]1CC[C@H](C(=O)O)CC1 [Evacetrapib (LY2484595)] | 84 | 86 | 84 | 
CCN[C@@H]1C[C@H](N)[C@@H](O[C@H]2OC(CN)=CC[C@H]2N)[C@H](O)[C@H]1O[C@H]1OC[C@](C)(O)[C@H](NC)[C@H]1O.CCN[C@@H]1C[C@H](N)[C@@H](O[C@H]2OC(CN)=CC[C@H]2N)[C@H](O)[C@H]1O[C@H]1OC[C@](C)(O)[C@H](NC)[C@H]1O.O=S(=O)(O)O.O=S(=O)(O)O.O=S(=O)(O)O.O=S(=O)(O)O.O=S(=O)(O)O [Netilmicin Sulfate] | 86 | 110 | 111 | 
O=C(O)Cc1ccccc1Nc1c(Cl)cccc1Cl [Diclofenac Sodium] | 100 | 115 | 92 | 
CC1(C)Cc2c(-c3ccccc3)c(-c3ccc(Cl)cc3)c(CC(=O)O)n2C1 [Licofelone] | 80 | 85 | 69 | 
CC(=O)N1CCN(c2ccc(OCC3COC(Cn4ccnc4)(c4ccc(Cl)cc4Cl)O3)cc2)CC1 (stereo not drawn) [Ketoconazole] | 92 | 89 | 75 | 

SMILES | % Phosphatase Activity (compared to DMSO) PRL-1 (recombinant PRL-1; [1]) [%] | % Phosphatase Activity (compared to DMSO) PRL-2 (recombinant PRL-2; [1]) [%] | % Phosphatase Activity (compared to DMSO) PRL-3 (recombinant PRL-3; [1]) [%] | also measured
C/C(O)=C(\C#N)C(=O)Nc1ccc(C(F)(F)F)cc1 [Teriflunomide] |  |  |  | % Phosphatase Activity (compared to DMSO) PRL-1 (recombinant PRL-1; [2]): 95%; % Phosphatase Activity (compared to DMSO) PRL-2 (recombinant PRL-2; [2]): 98%; % Phosphatase Activity (compared to DMSO) PRL-3 (recombinant PRL-3; [2]): 84%
CCCc1nc(C(C)(C)O)c(C(=O)OCc2oc(=O)oc2C)n1Cc1ccc(-c2ccccc2-c2nnn[nH]2)cc1 [Olmesartan Medoxomil] | 97 | 93 | 76 | 
CN(C)CCCOc1nn(Cc2ccccc2)c2ccccc12 [Benzydamine HCl] | 100 | 116 | 77 | 
Cc1ccccc1C(=O)Nc1ccc(C(=O)N2CCCC(O)c3cc(Cl)ccc32)c(C)c1 (stereo not drawn) [Tolvaptan] |  |  |  | % Phosphatase Activity (compared to DMSO) PRL-1 (recombinant PRL-1; [2]): 97%; % Phosphatase Activity (compared to DMSO) PRL-2 (recombinant PRL-2; [2]): 143%; % Phosphatase Activity (compared to DMSO) PRL-3 (recombinant PRL-3; [2]): 101%
CC(C)(CO)[C@@H](O)C(=O)NCCCO [D panthenol] | 93 | 80 | 90 | 
CC(=O)O.CC(=O)O.CC[C@H](C)C[C@H](C)CCCCCCCCC(=O)N[C@H]1C[C@@H](O)[C@@H](NCCN)NC(=O)[C@@H]2[C@@H](O)CCN2C(=O)[C@H]([C@H](O)CCN)NC(=O)[C@H]([C@H](O)[C@@H](O)c2ccc(O)cc2)NC(=O)[C@@H]2C[C@@H](O)CN2C(=O)[C@H]([C@@H](C)O)NC1=O [Caspofungin Acetate] | 106 | 113 | 109 | 
Cn1c(COP(=O)(NCCBr)NCCBr)cnc1[N+](=O)[O-] [TH-302] |  |  |  | % Phosphatase Activity (compared to DMSO) PRL-1 (recombinant PRL-1; [2]): 91%; % Phosphatase Activity (compared to DMSO) PRL-2 (recombinant PRL-2; [2]): 100%; % Phosphatase Activity (compared to DMSO) PRL-3 (recombinant PRL-3; [2]): 95%
O=c1cc[nH]c(=O)[nH]1 [Uracil] |  |  |  | % Phosphatase Activity (compared to DMSO) PRL-1 (recombinant PRL-1; [2]): 100%; % Phosphatase Activity (compared to DMSO) PRL-2 (recombinant PRL-2; [2]): 93%; % Phosphatase Activity (compared to DMSO) PRL-3 (recombinant PRL-3; [2]): 69%
C[C@]12C=CC(=O)C=C1CC[C@@H]1[C@@H]2C(=O)C[C@@]2(C)[C@H]1CC[C@]2(O)C(=O)CO [Prednisone] | 98 | 91 | 80 | 
N[C@@H](CCC(=O)N[C@@H](CS)C(=O)NCC(=O)O)C(=O)O [Glutathione] |  |  |  | % Phosphatase Activity (compared to DMSO) PRL-1 (recombinant PRL-1): 93%; % Phosphatase Activity (compared to DMSO) PRL-2 (recombinant PRL-2): 87%; % Phosphatase Activity (compared to DMSO) PRL-3 (recombinant PRL-3): 112%
Cc1cc(C2CCCCC2)n(O)c(=O)c1.NCCO [Ciclopirox ethanolamine] | 106 | 109 | 83 | 
CO/N=C(\C(=O)N[C@@H]1C(=O)N2C(C(=O)O)=C(CSc3nnnn3C)CS[C@H]12)c1csc(N)n1.CO/N=C(\C(=O)N[C@@H]1C(=O)N2C(C(=O)O)=C(CSc3nnnn3C)CS[C@H]12)c1csc(N)n1.Cl [Cefmenoxime hydrochloride] | 92 | 98 | 84 | 
CN(C)C(=O)COC(=O)Cc1ccc(OC(=O)c2ccc(NC(=N)N)cc2)cc1 [Camostat Mesilate] | 98 | 138 | 94 | 
CCCCOc1ccc(CC(=O)NO)cc1 [Bufexamac] | 117 | 110 | 91 | 
CC[C@H](C)C(=O)O[C@H]1CCC=C2C=C[C@H](C)[C@H](CC[C@@H]3C[C@@H](O)CC(=O)O3)[C@H]21 [Mevastatin] | 88 | 89 | 71 | 
C[C@]12CC[C@H](O)CC1=CC[C@@H]1[C@@H]2CC[C@]2(C)C(n3cnc4ccccc43)=CC[C@@H]12 [Galeterone] | 90 | 98 | 96 | 
COC(=O)[C@H](c1ccccc1Cl)N1CCc2sccc2C1 [Clopidogrel] |  |  |  | % Phosphatase Activity (compared to DMSO) PRL-1 (recombinant PRL-1): 100%; % Phosphatase Activity (compared to DMSO) PRL-2 (recombinant PRL-2): 86%; % Phosphatase Activity (compared to DMSO) PRL-3 (recombinant PRL-3): 81%
O=C[C@H](O)[C@@H](O)[C@H](O)CO [Xylose] |  |  |  | % Phosphatase Activity (compared to DMSO) PRL-1 (recombinant PRL-1; [2]): 115%; % Phosphatase Activity (compared to DMSO) PRL-2 (recombinant PRL-2; [2]): 102%; % Phosphatase Activity (compared to DMSO) PRL-3 (recombinant PRL-3; [2]): 68%
